Results taken from article PMC6222451, “Novel Potent Hypoglycemic Compounds from Euonymus laxiflorus Champ. and Their Effect on Reducing Plasma Glucose in an ICR Mouse Model” (Molecules : A Journal of Synthetic Chemistry and Natural …, 2018).
Like-named read-outs stand apart in the source and are kept apart here.

Columns and labels:
ICR mice = experiment: Starch tolerance test: effect on reducing plasma glucose in ICR mice; format: in vivo, mouse; settings: oral
Text: Animals: seven week-old male ICR (Institute of Cancer Research) mice were purchased from The National Laboratory Animal Center (No. 128, Sec. 2, Academia Rd., Nangang Dist., Taipei City 11529, Taiwan) and tested in accordance with the approval and guidelines of the Institutional Animal Care and Use Committee of the National Research Institute of Chinese Medicine, Ministry of Health and Welfare (IACUC No. 104-706-1, 29 December 2014). […] Distilled water was used to prepare the condensed tannins and acarbose solutions.
Assay: The effect of condensed tannin-ELCTB-3.1.1 on the reduction of plasma glucose in mice was performed according to the experimental animal protocol described by Nguyen et al. (2017) with the use of starch solution (3 g/kg bw) instead of sucrose solution administered to ICR mice.

[1] = biological target: T1, Saccharomyces cerevisiae (yeast) α-glucosidase (Saccharomyces cerevisiae, UniProt P53341); experiment: α-Glucosidase inhibitory activity determination (pNPG substrate); format: biochemical; settings: for inhibition at 7.81 µg/mL: read-out: Maximum Inhibition (%), recorded at 7.81 μg/mL
T1 construct: purchased Sigma Chemical Co., St. Louis City, MO, USA
Procedure: The α-glucosidase inhibitory activity was closely detected following the method described in detail by Nguyen et al. (2018). The mixture of 50 μL α-glucosidase, 50 μL sample solutions, 100 μL buffer was pre-incubated at 37 °C for 20 min; the reaction then started when 50 μL of p-nitrophenyl glucopyranoside (10 mmol/L) was added to the mixture. After incubation at the same temperature for 30 min, the reaction was stopped by adding 100 μL Na2CO3 solution (1 mol/L) to the reaction mixture; the absorbance of this final mixture was then measured at 410 nm (A). The control group also underwent the same described method with the use of 50 μL buffer instead of 50 μL sample solutions; the absorbance was recorded at 410 nm (B). The aGI activity (%) was calculated using the following equation: aGI (%) = (A − B)/ A × 100.
The inhibition was also expressed as IC50 value determined as per the previous study. The enzyme and the samples were prepared in 0.1 mol/L potassium phosphate buffer (pH 7). […]

[2] = isolated compounds (Table 3), read-out: IC50 (converted)
[3] = read-out: Maximum Inhibition (%), recorded at 250 μg/mL
[4] = read-out: α-glucosidase inhibition, aGI (%), primary test of 26 isolated compounds at 250 µg/mL (Figure 2)
[5] = IC50, isolated compounds (Table 3)

T1 sequence (P53341 whole entry): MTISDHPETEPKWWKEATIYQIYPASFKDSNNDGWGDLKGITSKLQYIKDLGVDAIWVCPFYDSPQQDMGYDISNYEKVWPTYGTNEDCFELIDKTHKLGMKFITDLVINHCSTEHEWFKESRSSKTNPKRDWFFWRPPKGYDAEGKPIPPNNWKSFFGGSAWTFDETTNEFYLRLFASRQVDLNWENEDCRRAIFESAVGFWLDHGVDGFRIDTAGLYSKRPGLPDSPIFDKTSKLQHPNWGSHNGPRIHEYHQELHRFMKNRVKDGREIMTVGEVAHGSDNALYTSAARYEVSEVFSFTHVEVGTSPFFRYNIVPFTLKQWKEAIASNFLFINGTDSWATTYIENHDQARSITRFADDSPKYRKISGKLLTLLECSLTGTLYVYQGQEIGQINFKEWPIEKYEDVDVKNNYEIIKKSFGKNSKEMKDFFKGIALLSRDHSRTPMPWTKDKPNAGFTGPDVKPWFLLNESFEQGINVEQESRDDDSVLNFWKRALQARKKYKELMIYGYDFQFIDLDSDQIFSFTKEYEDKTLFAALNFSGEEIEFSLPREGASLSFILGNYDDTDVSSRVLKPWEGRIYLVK

C[C@H]1O[C@H](O[C@H]2[C@H](O)[C@@H](O)[C@@H](O[C@H]3[C@H](O)[C@@H](O)C(O)O[C@@H]3CO)O[C@@H]2CO)[C@H](O)[C@@H](O)[C@@H]1N[C@H]1C=C(CO)[C@@H](O)[C@H](O)[C@H]1O (stereo partly shown) [Acarbose, reference compound]
mice with symptoms of diarrhea (ICR mice; acarbose 25 mg/kg bw): 20% | mice with symptoms of diarrhea (ICR mice; acarbose 50 mg/kg bw): 50% | inhibition at 2500 µg/mL ([1]; read-out: Maximum Inhibition (%), acarbose, recorded at 2500 μg/mL (Table 3)): 65 ± 2.7% | inhibition at 2500 µg/mL ([1]; read-out: α-Glucosidase Inhibitory Activity Inhibition (%), yeast α-glucosidase, acarbose tested at 2500 μg/mL (Table 2)): 64 ± 2.4%

COc1cc(O)cc(OC)c1O[C@@H]1O[C@H](CO)[C@@H](O)[C@H](O)[C@H]1O [Compound 14, Leonuriside]
IC50 [1, 2]: 2.79 µM | inhibition at 7.81 µg/mL [1]: 99 ± 6.4%

O=C(c1ccc(O)cc1)C(O)CO[C@@H]1O[C@H](CO)[C@@H](O)[C@H](O)[C@H]1O (stereo partly drawn) [Compound 11, Schweinfurthinol 9-O-β-D-pyranoglucoside]
IC50 [1]: 91.8 µM | inhibition at 250 µg/mL [1, 3]: 87 ± 4% | inhibition at 250 µg/mL [1, 4]: 90 to 100%

Oc1cc(O)c2c(c1)O[C@@H](c1ccc(O)c(O)c1)[C@H](O)C2 [Compound 23, (−)-Catechin]
inhibition at 250 µg/mL [1, 3]: ≤ 38%

COc1cc(O[C@@H]2O[C@H](CO)[C@@H](O)[C@H](O)[C@H]2O)cc(OC)c1O [Compound 9, 1-β-D-glucopyranosyloxy-3,5-dimethoxy-4-hydroxybenzene]
inhibition at 250 µg/mL [1, 3]: ≤ 38% | inhibition at 250 µg/mL [1, 4]: 38 to 60%

CC(C)=CC(=O)O[C@@H]1[C@H](O)[C@H](O)[C@@H](O)[C@H](O)[C@H]1O [Compound 12, 1-O-(3-methyl)-butenoyl-myo-inositol]
IC50 [1, 2]: 103 µM | inhibition at 250 µg/mL [1, 3]: 96 ± 6.9%

Oc1cc(O)c2c(c1)O[C@@H](c1cc(O)c(O)c(O)c1)[C@H](O)C2 [Compound 10, (−)-Gallocatechin]
IC50 [1, 5]: 38.9 µM | inhibition at 250 µg/mL [1, 3]: 93 ± 2.9%

COC(=O)c1cc(O)c(O)c(O)c1 [Compound 20, Methyl galloate]
IC50 [1, 5]: 597 µM | inhibition at 250 µg/mL [1, 3]: 58 ± 1.2%

CC1=CC(=O)OCC1O[C@@H]1O[C@H](CO)[C@@H](O)[C@H](O)[C@H]1O (stereo partly drawn) [Compound 1, Walterolactone A/B β-D-pyranoglucoside]
IC50 [1]: 3.12 µM | inhibition at 7.81 µg/mL [1]: 100 ± 5.8%

Oc1cc(O)c2c(c1)O[C@H](c1ccc(O)c(O)c1)[C@@H](O)C2 [Compound 19, (+)-Catechin]
IC50 [1, 2]: 0.389 µM | inhibition at 0.977 µg/mL ([1]; read-out: Maximum Inhibition (%), recorded at 0.977 μg/mL): 100 ± 5.9%
